Laboratory results taken from patent US20210261569A1, “FUSED HETEROCYCLIC DERIVATIVES HAVING SELECTIVE BACE1 INHIBITORY ACTIVITY” (Shionogi & Co., Ltd., priority 2018, published 2021).

Legend:
[1] = molecular target: T1, recombinant BACE1 protein (Homo sapiens, UniProt P56817); assay: BACE1 biochemical FRET based assay; conditions: for Selectivity: BACE2 IC50 relative to BACE1 IC50; for IC50: FRET, pH 5.0, 450 min at room temperature
T1 construct: recombinant BACE1 protein in a final concentration of 0.04 μg/mL
Source text: (§1) This assay is a Fluorescence Resonance Energy Transfer Assay (FRET) based assay. The substrate for this assay is an APP derived 13 amino acids peptide that contains the ‘Swedish’ Lys-Met/Asn-Leu mutation of the amyloid precursor protein (APP) beta-site secretase cleavage site. This substrate also contains two fluorophores: (7-methoxycoumarin-4-yl) acetic acid (Mca) is a fluorescent donor with excitation wavelength at 320 nm and emission at 405 nm and 2,4-dinitrophenol (Dnp) is a proprietary quencher acceptor. […] Upon cleavage by BACE1, the fluorophore Mca is separated from the quenching group Dnp, restoring the full fluorescence yield of the donor. The increase in fluorescence is linearly related to the rate of proteolysis.
Briefly in a 384-well format recombinant BACE1 protein in a final concentration of 0.04 μg/mL was incubated for 450 minutes at room temperature with 10 μm substrate in incubation buffer (final concentrations: 33.3 mM Citrate buffer pH 5.0, 0.033% PEG, 3% DMSO) in the absence or presence of compound. Next the amount of proteolysis was directly measured by fluorescence measurement at T=0′-120′ and T=450′ (excitation at 320 nm and emission at 405 nm). Results were expressed in RFU (Relative Fluorescence Units), as difference between T450 and Tx (Tx is chosen depending on the reaction speed between 0 and 120 minutes).
(§2) A best-fit curve was fitted by a minimum sum of squares method to the plot of % Controlmin versus compound concentration. From this an IC50 value (inhibitory concentration causing 50% inhibition of activity) can be obtained.

[2] = molecular target: T2, recombinant BACE2 protein (Homo sapiens, UniProt Q9Y5Z0); assay: BACE2 biochemical FRET based assay; conditions: pH 5.0, 450 min at room temperature
T2 construct: recombinant BACE2 protein in a final concentration of 0.4 μg/mL
T2 sequence (Q9Y5Z0 63-518): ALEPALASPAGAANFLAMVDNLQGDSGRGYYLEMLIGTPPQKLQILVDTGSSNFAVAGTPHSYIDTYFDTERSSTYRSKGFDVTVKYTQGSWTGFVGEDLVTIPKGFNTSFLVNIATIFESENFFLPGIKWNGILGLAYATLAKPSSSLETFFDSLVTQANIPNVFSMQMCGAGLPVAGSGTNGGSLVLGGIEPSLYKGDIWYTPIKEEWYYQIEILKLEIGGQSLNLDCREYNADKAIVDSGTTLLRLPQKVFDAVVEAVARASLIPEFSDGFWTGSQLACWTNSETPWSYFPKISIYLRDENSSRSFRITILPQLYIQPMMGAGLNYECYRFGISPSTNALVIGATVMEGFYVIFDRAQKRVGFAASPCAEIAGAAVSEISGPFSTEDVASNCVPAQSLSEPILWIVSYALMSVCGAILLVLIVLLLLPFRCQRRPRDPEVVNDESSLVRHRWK
Source text: as §1, with “assay” for “assay is an APP derived 13 amino acids peptide that”, “beta-secretase” for “beta-site secretase”, “the beta-secretase,” for “BACE1,”
Briefly in a 384-well format recombinant BACE2 protein in a final concentration of 0.4 μg/mL was incubated for 450 minutes at room temperature with 10 μM substrate in incubation buffer (final concentrations: 33.3 mM Citrate buffer pH 5.0, 0.033% PEG, 2% DMSO) in the absence or presence of compound. Next the amount of proteolysis was directly measured by fluorescence measurement at T=0 and T=450 (excitation at 320 nm and emission at 405 nm). Results were expressed in RFU (Relative Fluorescence Units), as difference between T450 and T0.
as §2

T1 sequence (P56817 46-501): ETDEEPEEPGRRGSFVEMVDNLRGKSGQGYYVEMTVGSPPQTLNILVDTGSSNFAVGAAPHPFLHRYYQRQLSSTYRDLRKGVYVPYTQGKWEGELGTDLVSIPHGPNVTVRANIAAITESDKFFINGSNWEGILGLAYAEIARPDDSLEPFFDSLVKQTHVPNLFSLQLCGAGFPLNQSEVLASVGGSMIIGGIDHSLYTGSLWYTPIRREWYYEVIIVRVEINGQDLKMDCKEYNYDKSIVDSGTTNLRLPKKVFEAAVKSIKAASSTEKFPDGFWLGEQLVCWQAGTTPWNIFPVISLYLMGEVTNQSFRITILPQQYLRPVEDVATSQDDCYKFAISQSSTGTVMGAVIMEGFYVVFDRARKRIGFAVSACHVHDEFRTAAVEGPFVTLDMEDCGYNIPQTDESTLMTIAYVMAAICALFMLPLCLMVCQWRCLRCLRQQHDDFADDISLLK

SMILES: C[C@]1(c2cc(NC(=O)c3ccc(C#N)cn3)ccc2F)N=C(N)O[C@@H]2CO[C@@H](CC(F)F)[C@@H]21 [Compound I-018]
- Selectivity [1]: 38.1
- IC50 [1]: 1.2 nM
- IC50 [2]: 45.7 nM

SMILES: C[C@H]1OC[C@H]2[C@@H]1OC(N)=N[C@]2(CF)c1cc(NC(=O)c2cnc(-n3cncn3)cn2)ccc1F [Compound I-051]
- Selectivity [1]: 63.1
- IC50 [1]: 5.01 nM
- IC50 [2]: 316 nM

SMILES: C[C@]1(c2cc(NC(=O)c3cnc(OCF)cn3)ccc2F)N=C(N)O[C@@H]2CO[C@@H](CC(F)F)[C@@H]21 [Compound I-019]
- Selectivity [1]: 60.2
- IC50 [1]: 4.07 nM
- IC50 [2]: 245 nM

SMILES: CC[C@@H]1OC[C@H]2OC(N)=N[C@](C)(c3cc(NC(=O)c4cnc(OCF)cn4)ccc3F)[C@@H]12 [Compound I-023]
- Selectivity [1]: 51.2
- IC50 [1]: 4.79 nM
- IC50 [2]: 245 nM

SMILES: C[C@]1(c2cc(NC(=O)c3ccc(C#N)cn3)ccc2F)N=C(N)O[C@@H]2CO[C@@H](C(F)(F)F)[C@@H]21 [Compound I-016]
- Selectivity [1]: 62.3
- IC50 [1]: 5.7 nM
- IC50 [2]: 355 nM

SMILES: Cn1cc([C@@H]2OC[C@H]3OC(N)=N[C@](C)(c4cc(NC(=O)c5cnc(OCF)cn5)ccc4F)[C@H]32)cn1 [Compound I-014]
- Selectivity [1]: 223
- IC50 [1]: 44.7 nM
- IC50 [2]: 10000 nM

SMILES: C[C@]1(c2cc(NC(=O)c3cnc(OCF)cn3)ccc2F)N=C(N)O[C@@H]2CO[C@@H](CCF)[C@@H]21 [Compound I-021]
- Selectivity [1]: 37.1
- IC50 [1]: 8.51 nM
- IC50 [2]: 316 nM

SMILES: NC1=N[C@](CF)(c2cc(NC(=O)c3cnc(OCF)cn3)ccc2F)[C@@H]2COCC[C@H]2O1 [II-017]
- Selectivity [1]: 23.4
- IC50 [1]: 7.6 nM
- IC50 [2]: 178 nM

SMILES: Cc1noc(C)c1[C@@H]1OC[C@H]2OC(N)=N[C@](C)(c3cc(NC(=O)c4cnc(OCF)cn4)ccc3F)[C@H]21 [Compound I-031]
- Selectivity [1]: 282
- IC50 [1]: 12 nM
- IC50 [2]: 3390 nM

SMILES: CC(C)CCC[C@@H]1OC[C@H]2OC(N)=N[C@](C)(c3cc(NC(=O)c4cnc(OCF)cn4)ccc3F)[C@@H]12 [Compound I-025]
- Selectivity [1]: 9.3
- IC50 [1]: 1.26 nM
- IC50 [2]: 11.7 nM

SMILES: CC(C)C[C@@H]1OC[C@H]2OC(N)=N[C@](C)(c3cc(NC(=O)c4cnc(OCF)cn4)ccc3F)[C@@H]12 [Compound I-028]
- Selectivity [1]: 87.1
- IC50 [1]: 6.76 nM
- IC50 [2]: 589 nM

SMILES: CC(C)C[C@@H]1OC[C@H]2OC(N)=N[C@](C)(c3cc(NC(=O)c4cnc(OC[C@@H](C)F)cn4)ccc3F)[C@@H]12 [Compound I-029]
- Selectivity [1]: 191
- IC50 [1]: 22.9 nM
- IC50 [2]: 4370 nM

SMILES: C[C@@H](F)COc1cnc(C(=O)Nc2ccc(F)c([C@@]3(C)N=C(N)O[C@@H]4CO[C@@H](C(F)(F)F)[C@@H]43)c2)cn1 [Compound I-030]
- Selectivity [1]: 151
- IC50 [1]: 66.1 nM
- IC50 [2]: 10000 nM

SMILES: C[C@]1(c2cc(NC(=O)c3cnc(OCF)cn3)ccc2F)N=C(N)O[C@@H]2CO[C@@H](C(F)F)[C@@H]21 [Compound I-022]
- Selectivity [1]: 27.5
- IC50 [1]: 24 nM
- IC50 [2]: 661 nM

SMILES: C[C@]1(c2cc(NC(=O)c3ccc(C#N)cn3)ccc2F)N=C(N)O[C@@H]2CO[C@@H](CCF)[C@@H]21 [Compound I-020]
- Selectivity [1]: 21.4
- IC50 [1]: 2.19 nM
- IC50 [2]: 46.8 nM
